Experiments:
Settings in all cases: 48 h
NOMO1 [1] = assay: cell viability relative to DMSO control; higher = less cytotoxic
Procedure, shortened: (§1)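 NOMO1, SEM and P12-Ichikawa leukemia cells spent at least four passages adapting to each medium before use. They were seeded at 500 cells/well (NOMO1, SEM) or 1000 cells/well (P12-Ichikawa) in 5 μl in 1536-well plates and pin-dosed with library compounds in DMSO at 11 threefold steps from 47 μM down to 0.79 nM. After 48 h at 37°C, CellTiter-Glo One luminescence was read. Viability is reported as a percentage of the DMSO wells on each plate, with cell-free wells as background.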

P12-Ichikawa [2] = assay: as above
Procedure, shortened: as §1

SEM cells [3] = assay: as above
Procedure, shortened: as §1

NOMO1 [4] = assay: AUC of viability dose-response curve (% viability x log10 dose units); higher = less sensitive
Procedure, shortened: (§2)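 Over 48 h at 37°C, leukemia cells in 1536-well plates (500 or 1000 cells/well), adapted to each medium, received library compounds in DMSO at 11 threefold doses from 47 μM to 0.79 nM. CellTiter-Glo One luminescence, normalised per plate to DMSO and cell-free wells, was fitted by a four-parameter log-logistic function of log10 dose. The area under the curve was then integrated by trapezoidal rule, after scaling curves above full viability and removing those that failed quality control.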

P12-Ichikawa [5] = assay: as above
Procedure, shortened: as §2

SEM cells [6] = assay: as above
Procedure, shortened: as §2

NNc1nncc2ccccc12
cell viability [%]
Settings	NOMO1 [1]	P12-Ichikawa [2]	SEM cells [3]
HPLM + 10% dialyzed FBS, 0.000781 µM	115	112	76.2
HPLM + 10% dialyzed FBS, 0.00234 µM	125	121	105
HPLM + 10% dialyzed FBS, 0.00702 µM	131	127	109
HPLM + 10% dialyzed FBS, 0.0211 µM	139	122	103
HPLM + 10% dialyzed FBS, 0.0632 µM	144	126	117
HPLM + 10% dialyzed FBS, 0.19 µM	146	131	122
HPLM + 10% dialyzed FBS, 0.569 µM	134	121	112
HPLM + 10% dialyzed FBS, 1.71 µM	139	134	136
HPLM + 10% dialyzed FBS, 5.12 µM	132	129	126
HPLM + 10% dialyzed FBS, 15.4 µM	119	124	117
HPLM + 10% dialyzed FBS, 46.1 µM	128	130	132
RPMI 5 mM glucose + 10% FBS, 0.000781 µM	123	–	87.8
RPMI 5 mM glucose + 10% FBS, 0.00234 µM	121	–	114
RPMI 5 mM glucose + 10% FBS, 0.00702 µM	128	–	128
RPMI 5 mM glucose + 10% FBS, 0.0211 µM	126	–	128
RPMI 5 mM glucose + 10% FBS, 0.0632 µM	151	–	152
RPMI 5 mM glucose + 10% FBS, 0.19 µM	124	–	125
RPMI 5 mM glucose + 10% FBS, 0.569 µM	135	–	156
RPMI 5 mM glucose + 10% FBS, 1.71 µM	130	–	162
RPMI 5 mM glucose + 10% FBS, 5.12 µM	128	–	131
RPMI 5 mM glucose + 10% FBS, 15.4 µM	137	–	134
RPMI 5 mM glucose + 10% FBS, 46.1 µM	131	–	115
RPMI 5 mM glucose + 10% dialyzed FBS, 0.000781 µM	121	–	89.6
RPMI 5 mM glucose + 10% dialyzed FBS, 0.00234 µM	139	–	124
RPMI 5 mM glucose + 10% dialyzed FBS, 0.00702 µM	121	–	125
RPMI 5 mM glucose + 10% dialyzed FBS, 0.0211 µM	130	–	143
RPMI 5 mM glucose + 10% dialyzed FBS, 0.0632 µM	137	–	152
RPMI 5 mM glucose + 10% dialyzed FBS, 0.19 µM	132	–	135
RPMI 5 mM glucose + 10% dialyzed FBS, 0.569 µM	141	–	147
RPMI 5 mM glucose + 10% dialyzed FBS, 1.71 µM	138	–	163
RPMI 5 mM glucose + 10% dialyzed FBS, 5.12 µM	134	–	153
RPMI 5 mM glucose + 10% dialyzed FBS, 15.4 µM	131	–	156
RPMI 5 mM glucose + 10% dialyzed FBS, 46.1 µM	141	–	158

AUC of viability dose-response curve
Settings	NOMO1 [4]	P12-Ichikawa [5]	SEM cells [6]
HPLM + 10% dialyzed FBS	472	470	436
RPMI 5 mM glucose + 10% FBS	461	452	454
RPMI 5 mM glucose + 10% dialyzed FBS	466	463	438

COc1ccc2[nH]cc(CCNC(C)=O)c2c1
cell viability [%]
Settings	NOMO1 [1]	P12-Ichikawa [2]	SEM cells [3]
HPLM + 10% dialyzed FBS, 0.000781 µM	115	–	91
HPLM + 10% dialyzed FBS, 0.00234 µM	115	–	110
HPLM + 10% dialyzed FBS, 0.00702 µM	125	–	113
HPLM + 10% dialyzed FBS, 0.0211 µM	131	–	116
HPLM + 10% dialyzed FBS, 0.0632 µM	114	–	127
HPLM + 10% dialyzed FBS, 0.19 µM	129	–	114
HPLM + 10% dialyzed FBS, 0.569 µM	118	–	114
HPLM + 10% dialyzed FBS, 1.71 µM	119	–	101
HPLM + 10% dialyzed FBS, 5.12 µM	131	–	103
HPLM + 10% dialyzed FBS, 15.4 µM	112	–	117
HPLM + 10% dialyzed FBS, 46.1 µM	114	–	106
RPMI 5 mM glucose + 10% FBS, 0.000781 µM	–	125	112
RPMI 5 mM glucose + 10% FBS, 0.00234 µM	–	125	123
RPMI 5 mM glucose + 10% FBS, 0.00702 µM	–	112	124
RPMI 5 mM glucose + 10% FBS, 0.0211 µM	–	121	124
RPMI 5 mM glucose + 10% FBS, 0.0632 µM	–	122	117
RPMI 5 mM glucose + 10% FBS, 0.19 µM	–	123	114
RPMI 5 mM glucose + 10% FBS, 0.569 µM	–	112	124
RPMI 5 mM glucose + 10% FBS, 1.71 µM	–	111	102
RPMI 5 mM glucose + 10% FBS, 5.12 µM	–	109	110
RPMI 5 mM glucose + 10% FBS, 15.4 µM	–	108	123
RPMI 5 mM glucose + 10% FBS, 46.1 µM	–	112	119
RPMI 5 mM glucose + 10% dialyzed FBS, 0.000781 µM	–	–	121
RPMI 5 mM glucose + 10% dialyzed FBS, 0.00234 µM	–	–	131
RPMI 5 mM glucose + 10% dialyzed FBS, 0.00702 µM	–	–	114
RPMI 5 mM glucose + 10% dialyzed FBS, 0.0211 µM	–	–	144
RPMI 5 mM glucose + 10% dialyzed FBS, 0.0632 µM	–	–	125
RPMI 5 mM glucose + 10% dialyzed FBS, 0.19 µM	–	–	113
RPMI 5 mM glucose + 10% dialyzed FBS, 0.569 µM	–	–	120
RPMI 5 mM glucose + 10% dialyzed FBS, 1.71 µM	–	–	104
RPMI 5 mM glucose + 10% dialyzed FBS, 5.12 µM	–	–	100
RPMI 5 mM glucose + 10% dialyzed FBS, 15.4 µM	–	–	124
RPMI 5 mM glucose + 10% dialyzed FBS, 46.1 µM	–	–	113

AUC of viability dose-response curve
Settings	NOMO1 [4]	P12-Ichikawa [5]	SEM cells [6]
HPLM + 10% dialyzed FBS	474	451	472
RPMI 5 mM glucose + 10% FBS	429	458	469
RPMI 5 mM glucose + 10% dialyzed FBS	462	444	446

COc1cc2ncn(-c3cc(OCc4ccccc4C(F)(F)F)c(C(N)=O)s3)c2cc1OC
cell viability [%]
Settings	NOMO1 [1]	P12-Ichikawa [2]	SEM cells [3]
HPLM + 10% dialyzed FBS, 0.000781 µM	124	114	120
HPLM + 10% dialyzed FBS, 0.00234 µM	117	122	121
HPLM + 10% dialyzed FBS, 0.00702 µM	126	108	116
HPLM + 10% dialyzed FBS, 0.0211 µM	117	112	115
HPLM + 10% dialyzed FBS, 0.0632 µM	120	121	115
HPLM + 10% dialyzed FBS, 0.19 µM	115	110	104
HPLM + 10% dialyzed FBS, 0.569 µM	89.2	95.2	110
HPLM + 10% dialyzed FBS, 1.71 µM	46.1	45.2	65.3
HPLM + 10% dialyzed FBS, 5.12 µM	42.2	13.8	28.6
HPLM + 10% dialyzed FBS, 15.4 µM	41.2	11.9	22.4
HPLM + 10% dialyzed FBS, 46.1 µM	24.9	11.8	20.7
RPMI 5 mM glucose + 10% FBS, 0.000781 µM	99.2	117	124
RPMI 5 mM glucose + 10% FBS, 0.00234 µM	111	112	121
RPMI 5 mM glucose + 10% FBS, 0.00702 µM	116	121	122
RPMI 5 mM glucose + 10% FBS, 0.0211 µM	111	112	115
RPMI 5 mM glucose + 10% FBS, 0.0632 µM	120	110	124
RPMI 5 mM glucose + 10% FBS, 0.19 µM	118	111	105
RPMI 5 mM glucose + 10% FBS, 0.569 µM	110	115	128
RPMI 5 mM glucose + 10% FBS, 1.71 µM	94.9	71.5	74
RPMI 5 mM glucose + 10% FBS, 5.12 µM	26.3	12.2	18.4
RPMI 5 mM glucose + 10% FBS, 15.4 µM	24.6	11.8	13.4
RPMI 5 mM glucose + 10% FBS, 46.1 µM	17.6	11.1	13.1
RPMI 5 mM glucose + 10% dialyzed FBS, 0.000781 µM	108	113	108
RPMI 5 mM glucose + 10% dialyzed FBS, 0.00234 µM	122	111	112
RPMI 5 mM glucose + 10% dialyzed FBS, 0.00702 µM	112	111	124
RPMI 5 mM glucose + 10% dialyzed FBS, 0.0211 µM	113	112	120
RPMI 5 mM glucose + 10% dialyzed FBS, 0.0632 µM	112	123	116
RPMI 5 mM glucose + 10% dialyzed FBS, 0.19 µM	123	109	142
RPMI 5 mM glucose + 10% dialyzed FBS, 0.569 µM	117	103	139
RPMI 5 mM glucose + 10% dialyzed FBS, 1.71 µM	85.2	85.3	103
RPMI 5 mM glucose + 10% dialyzed FBS, 5.12 µM	32.4	19.5	25.9
RPMI 5 mM glucose + 10% dialyzed FBS, 15.4 µM	30.1	17.4	20.3
RPMI 5 mM glucose + 10% dialyzed FBS, 46.1 µM	24.9	12.8	19.5

AUC of viability dose-response curve
Settings	NOMO1 [4]	P12-Ichikawa [5]	SEM cells [6]
HPLM + 10% dialyzed FBS	349	333	358
RPMI 5 mM glucose + 10% FBS	375	352	354
RPMI 5 mM glucose + 10% dialyzed FBS	375	364	372

COc1cc(OC)c(C(=O)CCCN2CCCC2)c(OC)c1
cell viability [%]
Settings	NOMO1 [1]	P12-Ichikawa [2]	SEM cells [3]
HPLM + 10% dialyzed FBS, 0.000781 µM	–	116	119
HPLM + 10% dialyzed FBS, 0.00234 µM	–	120	117
HPLM + 10% dialyzed FBS, 0.00702 µM	–	128	127
HPLM + 10% dialyzed FBS, 0.0211 µM	–	119	114
HPLM + 10% dialyzed FBS, 0.0632 µM	–	120	115
HPLM + 10% dialyzed FBS, 0.19 µM	–	116	108
HPLM + 10% dialyzed FBS, 0.569 µM	–	112	115
HPLM + 10% dialyzed FBS, 1.71 µM	–	113	113
HPLM + 10% dialyzed FBS, 5.12 µM	–	118	93
HPLM + 10% dialyzed FBS, 15.4 µM	–	117	107
HPLM + 10% dialyzed FBS, 46.1 µM	–	116	109
RPMI 5 mM glucose + 10% FBS, 0.000781 µM	132	119	122
RPMI 5 mM glucose + 10% FBS, 0.00234 µM	125	123	143
RPMI 5 mM glucose + 10% FBS, 0.00702 µM	122	132	118
RPMI 5 mM glucose + 10% FBS, 0.0211 µM	127	130	135
RPMI 5 mM glucose + 10% FBS, 0.0632 µM	127	125	126
RPMI 5 mM glucose + 10% FBS, 0.19 µM	116	124	118
RPMI 5 mM glucose + 10% FBS, 0.569 µM	120	122	127
RPMI 5 mM glucose + 10% FBS, 1.71 µM	108	109	112
RPMI 5 mM glucose + 10% FBS, 5.12 µM	119	112	109
RPMI 5 mM glucose + 10% FBS, 15.4 µM	98.4	111	105
RPMI 5 mM glucose + 10% FBS, 46.1 µM	106	111	123

AUC of viability dose-response curve
Settings	NOMO1 [4]	P12-Ichikawa [5]	SEM cells [6]
HPLM + 10% dialyzed FBS	448	464	446
RPMI 5 mM glucose + 10% FBS	440	456	451
RPMI 5 mM glucose + 10% dialyzed FBS	441	417	443
